Consider two compounds from US11213583B2, “Methods and compositions for treating cancer and infectious diseases” (Cedars-Sinai Medical Center, priority 2014, dated 2022).

Test [1] relates to RENCA tumor cells. As to conditions: Wang et al. Br J Cancer 2011; cited from earlier work.
In test [2] the test system is Pmel-1 lymphocytes. Put plainly: Flow cytometry of adoptively transferred Thy1.1 Pmel-1 lymphocytes after DC vaccine and temsirolimus. The following applies: with DC vaccine.
Test [3] has as its system RENCA tumors. The test is described as follows: RENCA tumor treatment model in Balb/c mice. It is filed as in vivo. As to conditions: αCD4 days 6 and 10; temsirolimus daily days 14 to 34; no cancer vaccine. Here is the method:
(§1) (a) RENCA-CA9 tumor cells were implanted into Balb/C mice (n=5 per group) on day 0. CD4 lymphocytes were depleted with αCD4 antibody on days 6 and 10. Mice were treated with daily temsirolimus on days 14 to 34. Tumor growth was monitored. Results are representative of triplicate experiments. (b) In the same experiment, lymphocytes were harvested on day 45, restimulated with CA9 peptide, and stained for CD8 and IFNγ. (c) Following CD4 depletion, spleen, lymph node and blood were collected on days 0, 1, 10. Lymphocytes were stained for CD4, CD8 and FoxP3 and analyzed by flow cytometry. (c-e) The percentages of CD4 cells in the spleen, lymph node and blood on days 0, 1, and 10 following CD4 depletion are reported. (d) Following CD4 depletion, percentages of splenocytes that are CD4 or CD8 positive are reported, and percent of CD4 cells that are FoxP3 positive is reported. (e) In the same experiment, the absolute numbers of splenocytes positive for CD4, CD8, and CD4/FoxP3 are reported. *p<0.05, **p<0.01,***p<0.005.
Furthermore, the presence of tumor itself increased Tregs (FIG. 8). Therefore, we hypothesized that the antitumor immunity induced by mTOR inhibition can be further enhanced by targeting Tregs. Currently there is no clinical strategy to selectively remove Tregs; however, it is feasible to deplete all CD4 lymphocytes. However, CD4 effector cells are required for immune activation. […]

The test system of test [4] is CD8 lymphocytes (IFN-γ). Put plainly: Tumor-specific IFN-γ response of lymphocytes harvested on day 45, RENCA model. As to conditions: lymphocytes harvested day 45, restimulated with CA9 peptide. Type of test: in vivo, mice. Here is the method:
as §1
In the same experiment, lymphocytes were harvested on day 45 and assessed for tumor-specific IFN-γ response (FIG. 2b). In tumor-bearing mice that received no treatment, there was no IFN-γ response. […] To characterize the CD4 lymphocyte depletion in response to αCD4, naïve mice were treated with a single dose of αCD4.

The test system of test [5] is CD4+FoxP3+ lymphocytes / CTL function. The test is described as follows: Treg depletion with diphtheria toxin in DEREG mice, in vivo CTL assay.

Take `CO[C@H]1C[C@@H]2CC[C@@H](C)[C@@](O)(O2)C(=O)C(=O)N2CCCC[C@H]2C(=O)O[C@H]([C@H](C)C[C@@H]2CC[C@@H](OC(=O)C(C)(CO)CO)[C@H](OC)C2)CC(=O)[C@H](C)/C=C(\C)[C@@H](O)[C@@H](OC)C(=O)[C@H](C)C[C@H](C)/C=C/C=C/C=C/1C` [temsirolimus]: the “growth of RENCA tumor cells in vitro” value in test [1] is on record as “directly inhibit the growth of RENCA tumor cells in vitro”. In test [2], the “Eomes expression in Pmel-1 lymphocytes” value is “increased expression of Eomes”, the “Tbet expression in Pmel-1 lymphocytes” value is “decrease in Tbet expression” and the Tregs entry was “increase in Tregs”. Also, the RENCA tumor growth entry in test [3] was “effective in decreasing tumor growth”. In addition, the “tumor-specific IFN-γ response” value in test [4] is “some IFN-γ response”.

For diphtheria toxin [DT], in test [5], the “CD4+FoxP3+ lymphocytes” value was “removed nearly all CD4+FoxP3+ lymphocytes”.
